Measurements as given in patent US10208288B2, “Differentiation of human embryonic stem cells into pancreatic endocrine cells” (Janssen Biotech, Inc., priority 2012, dated 2019).

Tested on: cells of the human embryonic stem cell line H1 differentiated to stage 6
Assay: Phase contrast imaging of endocrine cluster formation in stage 6 cultures
Format: cell-based
Method: Cells of the human embryonic stem cell line H1 (hESC H1, passage 40) were seeded as single cells at 1×10^5 cells/cm^2 on MATRIGEL™ (1:30 dilution; BD Biosciences, NJ) coated dishes in mTeSR®1 media (StemCell Technologies, Vancouver, Canada) supplemented with 10 μM of Y27632. Forty-eight hours post seeding, cultures were washed in incomplete PBS (phosphate buffered saline without Mg or Ca). Cultures were differentiated into pancreatic endoderm/endocrine lineages as follows: • a) Stage 1 (Definitive Endoderm (DE)—3 days): Cells were cultured for one day in stage 1 media (see Example 1, above). Cells were then cultured for an additional day in MCDB-131 medium supplemented with 0.1% fatty acid-free BSA, 0.0012 g/ml sodium bicarbonate, 1× GlutaMax™, 4.5 mM D-Glucose, 100 ng/ml GDF8, and 0.1 μM MCX compound. Cells were then cultured for an additional day in MCDB-131 medium supplemented with 0.1% fatty acid-free BSA, 0.0012 g/ml sodium bicarbonate, 1× GlutaMax™, 4.5 mM D-Glucose, and 100 ng/ml GDF8, then • b) Stage 2 (Primitive gut tube—2 days): Cells were treated for two days with MCDB-131 medium supplemented with 0.1% fatty acid-free BSA; 0.0012 g/ml sodium bicarbonate; 1× GlutaMax™; 4.5 mM D-Glucose; 0.25 mM ascorbic acid (Sigma, Mo.) and 25 ng/ml FGF7 (R & D Systems, MN), then • c) Stage 3 (Foregut—2 days): Cells were treated with MCDB-131 medium supplemented with a 1:200 dilution of ITS-X (Invitrogen, Ca); 4.5 mM Glucose; 1× GlutaMax™; 0.0017 g/ml sodium bicarbonate; 2% fatty acid-free BSA; 0.25 μM SANT-1 (Sigma, Mo.); 10 ng/ml of Activin-A (R& D Systems, MN); 1 μM RA (Sigma, Mo.); 25 ng/ml FGF7; 0.25 mM ascorbic acid; 200 nM TPB (PKC activator; Catalog No. 565740; EMD Chemicals, Gibstown, N.J.); 10 μM forskolin (FSK, Sigma, Mo.), and 100 nM LDN (BMP receptor inhibitor; Catalog No. 04-0019; Stemgent, Calif.) for day 1. […]

CCCCCCCCCCCCC/C=C/[C@@H](O)[C@@H](N)COP(=O)(O)O [S1P, sphingosine-1-phosphate]
time at which endocrine clusters emerged after start of stage 6 (10 μM added for three days at stage 6, FIG. 6A, 6B): 3 days
formation of clusters earlier than in control cultures (10 μM at stage 6, vs control cultures): about 7 days
clustering of endocrine cells (S6 cultures, day 7, phase contrast, FIG. 4B): clear evidence of clustering of endocrine cells
appearance of endocrine clusters (S6 cultures, day 10, phase contrast, FIG. 4C, 4D): clusters were separated from each other by a thin layer of pancreatic endoderm epithelium
